# Laboratory results published in PubChem BioAssay AID2060484 (Molecular Pharmacology Branch, DTP, NCI, 2025).
# Test system: SUM149PT spheroids with HUVEC/MSC, viability
# Experiment: Anticancer human tumor SUM149PT cell line growth inhibition [GQUAD];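 further: spheroids exposed to drugs for seven days before readout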;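 on viability, T/C: percent viability relative to DMSO vehicle control taken as 100%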
# Details: for IC50: curve of first compound; for viability, T/C: stronger effect = lower value
# Procedure, shortened: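 Tumor cells were grown as complex spheroids with HUVEC endothelial cells and mesenchymal stem cells as stroma. G-quadruplex stabilizers were combined with targeted agents over half-log dilutions from near the clinical Cmax, or from 10 microM.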
# [1] = second compound 0.0316 µM, first compound 0.0316 µM
# [2] = second compound 0.0316 µM, first compound 0.1 µM
# [3] = second compound 0.0316 µM, first compound 0.316 µM
# [4] = second compound 0.0316 µM, first compound 1 µM
# [5] = second compound 0.0316 µM, first compound 3.16 µM
# [6] = second compound 0.0316 µM, first compound 10 µM
# [7] = second compound 0.1 µM, first compound 0.0316 µM
# [8] = second compound 0.1 µM, first compound 0.1 µM
# [9] = second compound 0.1 µM, first compound 0.316 µM
# [10] = second compound 0.1 µM, first compound 1 µM
# [11] = second compound 0.1 µM, first compound 3.16 µM
# [12] = second compound 0.1 µM, first compound 10 µM
# [13] = second compound 0.316 µM, first compound 0.0316 µM
# [14] = second compound 0.316 µM, first compound 0.1 µM
# [15] = second compound 0.316 µM, first compound 0.316 µM
# [16] = second compound 0.316 µM, first compound 1 µM
# [17] = second compound 0.316 µM, first compound 3.16 µM
# [18] = second compound 0.316 µM, first compound 10 µM
# [19] = second compound 1 µM, first compound 0.0316 µM
# [20] = second compound 1 µM, first compound 0.1 µM
# [21] = second compound 1 µM, first compound 0.316 µM
# [22] = second compound 1 µM, first compound 1 µM
# [23] = second compound 1 µM, first compound 3.16 µM
# [24] = second compound 1 µM, first compound 10 µM
# [25] = second compound 3.16 µM, first compound 0.0316 µM
# [26] = second compound 3.16 µM, first compound 0.1 µM
# [27] = second compound 3.16 µM, first compound 0.316 µM
# [28] = second compound 3.16 µM, first compound 1 µM
# [29] = second compound 3.16 µM, first compound 3.16 µM
# [30] = second compound 3.16 µM, first compound 10 µM
# [31] = second compound 10 µM, first compound 0.0316 µM
# [32] = second compound 10 µM, first compound 0.1 µM
# [33] = second compound 10 µM, first compound 0.316 µM
# [34] = second compound 10 µM, first compound 1 µM
# [35] = second compound 10 µM, first compound 3.16 µM
# [36] = second compound 10 µM, first compound 10 µM
smiles,measurement,setting,value
C=CC(=O)N1CCN(c2nc(=O)n(-c3c(C)ccnc3C(C)C)c3nc(-c4c(O)cccc4F)c(F)cc23)C(C)C1 (stereo unspecified) + Cc1cnc(CNC(=O)c2c(=O)c3ccc(N4CCCN(C)CC4)nc3n3c2sc2ccccc23)cn1,IC50,second compound 0.0316 µM,> 10000 nM
same,IC50,second compound 0.1 µM,> 10000 nM
same,IC50,second compound 0.316 µM,> 10000 nM
same,IC50,second compound 1 µM,< 31.6 nM
same,IC50,second compound 3.16 µM,< 31.6 nM
same,IC50,second compound 10 µM,< 31.6 nM
same,"viability, T/C",[1],92.7%
same,"viability, T/C",[2],82.8%
same,"viability, T/C",[3],103%
same,"viability, T/C",[4],103%
same,"viability, T/C",[5],123%
same,"viability, T/C",[6],106%
same,"viability, T/C",[7],62.4%
same,"viability, T/C",[8],66.6%
same,"viability, T/C",[9],76.5%
same,"viability, T/C",[10],77.1%
same,"viability, T/C",[11],85.4%
same,"viability, T/C",[12],70%
same,"viability, T/C",[13],61.9%
same,"viability, T/C",[14],54.8%
same,"viability, T/C",[15],56.5%
same,"viability, T/C",[16],65.9%
same,"viability, T/C",[17],66.9%
same,"viability, T/C",[18],59.3%
same,"viability, T/C",[19],50%
same,"viability, T/C",[20],46.1%
same,"viability, T/C",[21],48.7%
same,"viability, T/C",[22],51.6%
same,"viability, T/C",[23],56.3%
same,"viability, T/C",[24],46.7%
same,"viability, T/C",[25],40.7%
same,"viability, T/C",[26],38.4%
same,"viability, T/C",[27],42.5%
same,"viability, T/C",[28],45.6%
same,"viability, T/C",[29],47%
same,"viability, T/C",[30],41.2%
same,"viability, T/C",[31],0.28%
same,"viability, T/C",[32],2.73%
same,"viability, T/C",[33],1.23%
same,"viability, T/C",[34],2.1%
same,"viability, T/C",[35],3.34%
same,"viability, T/C",[36],0.29%
CC1COCCN1c1cc(-c2ccnn2C)c2ccnc(-c3ccn[nH]3)c2n1 (stereo unspecified) + Cc1cnc(CNC(=O)c2c(=O)c3ccc(N4CCCN(C)CC4)nc3n3c2sc2ccccc23)cn1,IC50,second compound 0.0316 µM,< 31.6 nM
same,IC50,second compound 0.1 µM,< 31.6 nM
same,IC50,second compound 0.316 µM,< 31.6 nM
same,IC50,second compound 1 µM,< 31.6 nM
same,IC50,second compound 3.16 µM,< 31.6 nM
same,IC50,second compound 10 µM,< 31.6 nM
same,"viability, T/C",[1],14.7%
same,"viability, T/C",[2],12.5%
same,"viability, T/C",[3],18.1%
same,"viability, T/C",[4],18.2%
same,"viability, T/C",[5],20.6%
same,"viability, T/C",[6],19.2%
same,"viability, T/C",[7],17.1%
same,"viability, T/C",[8],19.6%
same,"viability, T/C",[9],18.7%
same,"viability, T/C",[10],20.3%
same,"viability, T/C",[11],20.3%
same,"viability, T/C",[12],20.4%
same,"viability, T/C",[13],21.1%
same,"viability, T/C",[14],20.5%
same,"viability, T/C",[15],24.3%
same,"viability, T/C",[16],20.3%
same,"viability, T/C",[17],21.9%
same,"viability, T/C",[18],18.4%
same,"viability, T/C",[19],21.4%
same,"viability, T/C",[20],23.1%
same,"viability, T/C",[21],26.4%
same,"viability, T/C",[22],21.5%
same,"viability, T/C",[23],20.7%
same,"viability, T/C",[24],17.5%
same,"viability, T/C",[25],25.9%
same,"viability, T/C",[26],23.6%
same,"viability, T/C",[27],24.2%
same,"viability, T/C",[28],20.8%
same,"viability, T/C",[29],18.8%
same,"viability, T/C",[30],15.9%
same,"viability, T/C",[31],0.11%
same,"viability, T/C",[32],0.15%
same,"viability, T/C",[33],0.93%
same,"viability, T/C",[34],1.21%
same,"viability, T/C",[35],1.74%
same,"viability, T/C",[36],0.18%
CC1COCCN1c1cc(C2(O)CC3CCC(C2)O3)c2cnn(-c3ccn[nH]3)c2n1 (stereo unspecified) + Cc1cnc(CNC(=O)c2c(=O)c3ccc(N4CCCN(C)CC4)nc3n3c2sc2ccccc23)cn1,IC50,second compound 0.0316 µM,< 31.6 nM
same,IC50,second compound 0.1 µM,< 31.6 nM
same,IC50,second compound 0.316 µM,< 31.6 nM
same,IC50,second compound 1 µM,< 31.6 nM
same,IC50,second compound 3.16 µM,< 31.6 nM
same,IC50,second compound 10 µM,< 31.6 nM
same,"viability, T/C",[1],18.1%
same,"viability, T/C",[2],15.6%
same,"viability, T/C",[3],18.9%
same,"viability, T/C",[4],17.3%
same,"viability, T/C",[5],19.6%
same,"viability, T/C",[6],15.7%
same,"viability, T/C",[7],19.2%
same,"viability, T/C",[8],18.7%
same,"viability, T/C",[9],19.7%
same,"viability, T/C",[10],18.3%
same,"viability, T/C",[11],17.6%
same,"viability, T/C",[12],14.8%
same,"viability, T/C",[13],19.4%
same,"viability, T/C",[14],21.5%
same,"viability, T/C",[15],22%
same,"viability, T/C",[16],18.2%
same,"viability, T/C",[17],17.9%
same,"viability, T/C",[18],12.6%
same,"viability, T/C",[19],21.8%
same,"viability, T/C",[20],23.7%
same,"viability, T/C",[21],21.4%
same,"viability, T/C",[22],17.4%
same,"viability, T/C",[23],15.7%
same,"viability, T/C",[24],12.9%
same,"viability, T/C",[25],23%
same,"viability, T/C",[26],22.9%
same,"viability, T/C",[27],21.1%
same,"viability, T/C",[28],16%
same,"viability, T/C",[29],14.7%
same,"viability, T/C",[30],11%
same,"viability, T/C",[31],0.11%
same,"viability, T/C",[32],1.32%
same,"viability, T/C",[33],1.05%
same,"viability, T/C",[34],1.13%
same,"viability, T/C",[35],1.57%
same,"viability, T/C",[36],0.19%
